Structures are written as SMILES.

Test [1] has as its target T1, SSTR4 (Homo sapiens, UniProt P31391). The test can be described thus: SSTR4 I-125 somatostatin competition binding assay (CHO-K1 membranes). The arrangement: host or cells: CHO-K1. The following applies: competition with I-125 labeled somatostatin, membranes from CHO-K1 overexpressing SSTR4; read-out: SSTR4 Binding pIC50 (converted). The source says: SSTR4I-125 Somatostatin Competition Binding Assay
Membranes from CHO-K1 cells overexpressing SSTR4 are purchased from Perkin Elmer (catalog number ES-524-M400UA). […] The scintillator sheets are melted to filters using a heat block.

Test [2] has as its target T1, SSTR4. The test can be described thus: cell-based.
Procedure: This cell-based assay measures the ability of compounds to inhibit forskolin stimulated cAMP in CHO-K1 cells overexpressing SSTR4. CHO-K1 cells overexpressing SSTR4 (CHO-SSTR4) are purchased from DiscoveRx (product code 95-0059C2). The CHO-SSTR4 cells are maintained in F12K media with 10% Fetal Bovine Serum (Hyclone), 1% Pen/Strep (Life Technologies), and 800 μg/mL G418 (Life Technologies). To perform the assay, 3000 cells are plated per well in white 384-well plate (Corning 3570) in 50 complete media and the cells are allowed to attach for 16 hours in a 37° C., 5% CO2 incubator. The next day, the culture media is removed from the cells and the cells are washed (added then removed) with Krebs Ringer Buffer (ZenBio, KRB-1000 mL). Test compounds are suspended in DMSO and diluted in stimulation buffer: Krebs Ringer Buffer plus 0.5% BSA (Roche), 300 μM IBMX (Sigma), and 350 nM forskolin (Sigma). The cells are incubated in 10 μL compound/stimulation buffer for 30 minutes at room temperature. Cellular cAMP levels are detected with a HTRF LANCE Ultra cAMP kit (Perkin Elmer, catalog number TRF0264).
The assay is performed in accordance with the manufacturer's instructions. Five μL of diluted Eu-W8044 labeled streptavidin (dilution: 1:50 in cAMP Detection Buffer) is added to each well. Then 5 μL of diluted biotin cAMP (dilution: 1:150 in cAMP Detection Buffer) is added to each well. The plates are covered and allowed to incubate for 60 minutes at room temperature on a shaker. HTRF (665 nm/615 nm) is read on a Perkin Elmer ENVISION plate reader. The pEC50 values are generated using Activity Base for Screening Data Management.
Another test concerns the target SSTR1 (Homo sapiens, UniProt P30872). The test can be described thus: biochemical.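 Also: competitive binding to membranes of CHO-K1 cells overexpressing SSTR1, incubated 60 min at room temperature, radioactivity read by scintillation counting after filtration.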
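For EC50 in this document: CHO-K1 cells overexpressing SSTR4, reduction of forskolin-driven cAMP after 30 min compound exposure at room temperature, cAMP read by HTRF LANCE Ultra kit.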

Sequence of SSTR1 (P30872 whole entry): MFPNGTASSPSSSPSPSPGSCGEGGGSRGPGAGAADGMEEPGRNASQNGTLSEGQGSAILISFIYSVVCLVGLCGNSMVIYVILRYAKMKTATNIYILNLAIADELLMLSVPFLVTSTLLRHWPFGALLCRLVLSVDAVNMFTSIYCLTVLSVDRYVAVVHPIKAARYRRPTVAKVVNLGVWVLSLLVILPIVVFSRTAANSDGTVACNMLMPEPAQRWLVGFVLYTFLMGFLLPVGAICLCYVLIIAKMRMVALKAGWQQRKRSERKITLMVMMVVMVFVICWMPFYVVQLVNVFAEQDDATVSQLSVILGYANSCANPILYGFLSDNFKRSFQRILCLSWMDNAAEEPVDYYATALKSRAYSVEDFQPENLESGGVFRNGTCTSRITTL
T1 sequence (P31391 whole entry): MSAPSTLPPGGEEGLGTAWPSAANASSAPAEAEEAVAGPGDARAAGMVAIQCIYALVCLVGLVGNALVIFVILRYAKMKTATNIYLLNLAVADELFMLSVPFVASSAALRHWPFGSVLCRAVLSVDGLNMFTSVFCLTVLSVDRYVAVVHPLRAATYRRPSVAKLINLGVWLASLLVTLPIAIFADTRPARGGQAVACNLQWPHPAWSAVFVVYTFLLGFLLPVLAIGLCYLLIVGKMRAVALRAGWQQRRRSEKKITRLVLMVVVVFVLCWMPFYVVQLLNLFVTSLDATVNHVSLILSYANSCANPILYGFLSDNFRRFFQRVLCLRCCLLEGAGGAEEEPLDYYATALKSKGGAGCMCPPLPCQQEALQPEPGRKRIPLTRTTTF
Procedure for SSTR1: SSTR1 I-125 Somatostatin Competition Binding Assay for Selectivity Versus SSTR1
Membranes from CHO-K1 cells overexpressing SSTR1 are purchased from Perkin Elmer (catalog number ES-520-M400UA). Test compounds are suspended in DMSO and then diluted in assay buffer (25 mM HEPES pH 7.4, 10 mM MgCl2, 1 mM CaCl2, 0.5% BSA) plus 0.4 nM I-125 labeled somatostatin (Perkin Elmer catalog number NEX389). […] Then 10 μg of SSTR1 membranes in 50 μL assay buffer are added per well. The plate is incubated for 60 minutes at room temperature. […] The contents of the assay plate are transferred to filters with a TomTech harvester and washed 5 times with 20 mM HEPES, 100 mM NaCl. […] The scintillator sheets are melted to the filters using a heat block. The filters are then read in a MicroBeta scintillation counter. Binding Ki curves are generated using Activity Base for Screening Data Management and the results are reported as pIC50.

A word on the EC50: it is the concentration needed to bring the measured effect to its halfway point. As for `CO[C@H]1CCN(C(=O)c2nc(C(C)c3ccc(F)cc3)c(NCCN3CCCC3)nc2C)C1` (stereo partly drawn) [Example 68, (6-(1-(4-fluorophenyl)ethyl)-3-methyl-5-((2-(pyrrolidin-1-yl)ethyl)amino)pyrazin-2-yl)((S)-3-methoxypyrrolidin-1-yl)methanone], the IC50 at SSTR4 [1] is 31.6 nM; against SSTR1, 3550 nM. At SSTR4 [2], this compound showed a concentration giving a half-maximal response (EC50) of 0.676 nM.
The matching figures for `CO[C@H]1CCN(C(=O)c2cnc(NCCN3CCCC3)c([C@H](C)c3ccc(F)cc3)n2)C1` [Example 10, (6-((R)-1-(4-fluorophenyl)ethyl)-5-((2-(pyrrolidin-1-yl)ethyl)amino)pyrazin-2-yl)((S)-3-methoxypyrrolidin-1-yl)methanone]: 380 nM, 3160 nM and 26.9 nM.
The matching figures for `Cc1nnc([C@H](C)c2ccc(F)cc2)c(N[C@H]2CCN(C)C2)n1` (single isomer, unassigned) [Example 146]: 91.2 nM, 10000 nM and 27.5 nM.
The matching figures for `CC(c1ccc(F)cc1)c1nc(-c2ncco2)cnc1NCCN1CCCC1` (stereo not drawn) [Example 123, 3-(1-(4-fluorophenyl)ethyl)-5-(oxazol-2-yl)-N-(2-(pyrrolidin-1-yl)ethyl)pyrazin-2-amine]: 123 nM, 3310 nM and 20.9 nM.
In the case of `C[C@H](c1ccc(F)cc1)c1nccnc1NCCN1CCCC1` (single isomer, unassigned) [Example 121], the values for the IC50 on SSTR4 [1] and on SSTR1 were 39.8 nM and 1380 nM, respectively. On SSTR4 [2], this compound had an EC50 of 4.37 nM.
Regarding `CNC(=O)c1nc(Cc2cccc(C)c2)c(NCCN2CCCC2)nc1C` [Example 40, N,3-dimethyl-6-(3-methylbenzyl)-5-((2-(pyrrolidin-1-yl)ethyl)amino)pyrazine-2-carboxamide], the IC50 was 21.9 nM at SSTR4 [1] and 8910 nM at SSTR1. In addition, the midpoint of the response on SSTR4 [2], the EC50, lay at 1.17 nM.
For `Cc1nc(NCCN2CCCC2)c(C(C)c2ccc(F)cc2)nc1C(=O)N[C@@H]1CCOC1` (stereo partly drawn) [Example 61, 6-(1-(4-fluorophenyl)ethyl)-3-methyl-5-((2-(pyrrolidin-1-yl)ethyl)amino)-N-((R)-tetrahydrofuran-3-yl)pyrazine-2-carboxamide] the same measures were 20.4 nM, 1510 nM and 15.8 nM.
For `Cc1nnc([C@@H](C)c2ccccc2)c(NCCN2CCC2)n1` (single isomer, unassigned) [Example 145], the IC50 at SSTR4 [1] was 25.1 nM; at SSTR1, 14500 nM. In addition, the EC50 on SSTR4 [2] is 1.74 nM.
On to `Cc1nc(NCCN2CCCC2)c(C(C)c2ccc(F)cc2)nc1C(=O)N1CCC(F)(F)C1` (stereo not drawn) [Example 60, (3,3-difluoropyrrolidin-1-yl)(6-(1-(4-fluorophenyl)ethyl)-3-methyl-5-((2-(pyrrolidin-1-yl)ethyl)amino)pyrazin-2-yl)methanone], for which the IC50 is 40.7 nM at SSTR4 [1] and 1580 nM against SSTR1. The EC50 on SSTR4 [2] was 4.9 nM.
The matching figures for `CNC(=O)c1nc(Cc2ccc(F)cc2)c(N[C@@H]2CCN(C)C[C@H]2C)nc1C` (racemic) [Example 46, 5-((trans-1,3-dimethylpiperidin-4-yl)amino)-6-(4-fluorobenzyl)-N,3-dimethylpyrazine-2-carboxamide]: 490 nM, 14500 nM and 72.4 nM.
For `CC(c1ccc(F)cc1)c1nccnc1NCCN1CCCC1` (stereo not drawn) [Example 119, 3-(1-(4-fluorophenyl)ethyl)-N-(2-(pyrrolidin-1-yl)ethyl)pyrazin-2-amine] the same measures were 151 nM, 12000 nM and 8.71 nM.
For `C[C@H](c1ccc(F)cc1)c1nc(C(=O)NC2CCOCC2)cnc1NCCN1CCCC1` [Example 18, (R)-6-(1-(4-fluorophenyl)ethyl)-5-((2-(pyrrolidin-1-yl)ethyl)amino)-N-(tetrahydro-2H-pyran-4-yl)pyrazine-2-carboxamide] the same measures were 166 nM, 8910 nM and 12 nM.
